Measurements: US20130022620A1, “ASSAYS AND METHODS PERTAINING TO PRE-AMYLOID INTERMEDIATES” (priority 2011, published 2013)

What was measured:
[1] = Thioflavin-T kinetics and TEM of amyloid formation by IAPP peptides; type: physicochemical; conditions: wild type IAPP under the conditions described
Experimental: Thioflavin-T fluorescence was used to monitor the time course of h-IAPP amyloid formation in the presence and absence of sRAGE. To identify which form(s) of h-IAPP interact with RAGE, sRAGE was added to h-IAPP at various time points during the h-IAPP amyloid formation reaction. Aliquots of the reaction mixture were analyzed by adding 100 uL aliquots of the amyloid formation reaction to 96-well plates containing 8 uL of 60 uM thioflavin-T solution at various incubation times after initiation of the amyloid formation reaction. Fluorescence was measured using a Beckman Coulter DTX880 fluorescent plate reader (excitation: 445 nm and emission: 485 nm). Final solution conditions contained 16 mM tris HCl and […] thioflavin-T (pH 7.4). […] All values represent means±SEM (n=3).
Transient kinetic species of h-IAPP were characterized by TEM. TEM images confirm the presence or absence of amyloid which were indicated by thioflavin-T fluorescence. Aliquots (4 μl) were removed from the reaction mixtures monitored by thioflavin-T assays, placed on a carbon-coated 200-mesh copper grid and negatively stained with saturated uranyl acetate. The samples were imaged with a Philips CM12 transmission electron microscope at the New York University electron microscopy core facility. Final solution conditions contained 16 mM tris HCl (pH 7.4).

[2] = system: MCP-1 and IL-1β mRNA expression; assay: qRT-PCR of MCP-1 and IL-1β mRNA in β-cells; type: cell-based, rat; conditions: β-cells stimulated with peptide
Experimental: (§1) Assays for qRT-PCR were carried out in 6-well plates. Total cellular RNA was isolated from h-IAPP stimulated β-cells using Qiagen RNA isolation kit, and the quality of RNA samples was determined by measurement of 260:280 ratio. Only samples with a 260:280 ratio of 2.0 or higher were used for reverse transcription. RNA samples were also treated by RNAse-free DNAse to avoid genomic DNA contamination. One microgram of RNA from each sample was reverse-transcribed to cDNA using MCP-1 and IL-1β primers. Non-template negative controls were also performed to monitor non-specific reactions. RNA isolated from rat IAPP and non-h-IAPP treated beta cells were used as negative controls. Equal amounts of RNA were used in each qRT-PCR reaction, and 18S was used as the internal control for amplification at the same time. qRT-PCR reactions were carried out using an Applied Biosystems 7500 RealTime PCR machine. The relative mRNA contents were normalized using 18S and quantification was carried out using qRT-PCR Quantifier Software.

mouse pancreatic islets = assay: AlamarBlue cell viability assay of pancreatic islets; type: cell-based; conditions: FVB
[3] = system: MCP-1 and IL-1β mRNA expression; assay: qRT-PCR of MCP-1 and IL-1β mRNA in smooth muscle cells; type: cell-based, mouse; conditions: peptide stimulation
Experimental: Mouse vascular SMCs were cultured from the aortas of 10-week-old male mice using a modification of the procedure of Tarvo and Barret. See Tarvo et al. Blood Vessels. 1980; 17:110-116. SMCs were cultured following an explant protocol in accordance with institutional guidelines. Cultures were composed of 95% SM-α-actin positivity based on immunostaining.
as §1

CC[C@H](C)[C@H](NC(=O)[C@H](C)NC(=O)CNC(=O)[C@H](Cc1ccccc1)NC(=O)[C@H](CC(N)=O)NC(=O)[C@H](CC(N)=O)NC(=O)[C@H](CO)NC(=O)[C@H](CO)NC(=O)[C@H](Cc1c[nH]cn1)NC(=O)[C@@H](NC(=O)[C@H](CC(C)C)NC(=O)[C@H](Cc1ccccc1)NC(=O)[C@H](CC(N)=O)NC(=O)[C@H](C)NC(=O)[C@H](CC(C)C)NC(=O)[C@H](CCCNC(=N)N)NC(=O)[C@H](CCC(N)=O)NC(=O)[C@@H](NC(=O)[C@H](C)NC(=O)[C@@H]1CSSC[C@H](NC(=O)[C@@H](N)CCCCN)C(=O)N[C@@H](CC(N)=O)C(=O)N[C@@H]([C@@H](C)O)C(=O)N[C@@H](C)C(=O)N[C@@H]([C@@H](C)O)C(=O)N1)[C@@H](C)O)C(C)C)C(=O)N[C@@H](CC(C)C)C(=O)N[C@@H](CO)C(=O)N[C@@H](CO)C(=O)N[C@H](C(=O)N[C@@H](CC(N)=O)C(=O)N[C@H](C(=O)NCC(=O)N[C@@H](CO)C(=O)N[C@@H](CC(N)=O)C(=O)N[C@H](C(=O)N[C@@H](Cc1ccc(O)cc1)C(N)=O)[C@@H](C)O)C(C)C)[C@@H](C)O [h-IAPP, human islet amyloid polypeptide]
time at which the amyloid formation reaction reaches saturation [1]: about 40 hrs | MCP-1 and IL-1β mRNA expression [2]: increase in MCP-1 and IL-1β mRNA expression | loss in viability relative to buffer treatment alone (mouse pancreatic islets): 50% | MCP-1 and IL-1β mRNA expression in smooth muscle cells [3]: increase in MCP-1 and IL-1β mRNA expression
